Data set [1] deals with lens. Kind of data set: Pharmacological Test 3: lens elasticity after instillation of ursodeoxycholic acid (free form). Format: in vivo, C57BL/6J mice. Particulars: 2.5 μL/eye, 3 times per day, 12 to 15 days, vs vehicle control. As to the method: A vehicle comprising 0.1% (w/v) of ethyl pyruvate, 0.269% (w/v) of sodium dihydrogenphosphate monohydrate (NaH2PO4H2O), 0.433% (w/v) of disodium hydrogenphosphate (Na2HPO4), 0.2% (w/v) of hydroxypropyl methylcellulose, and 0.5% (w/v) of NaCl was prepared. Ursodeoxycholic acid was sonicated with the addition of the vehicle to prepare a 1.5% (w/v) suspension. The resulting 1.5% (w/v) suspension was diluted with the vehicle to prepare a 0.5% (w/v) suspension. Further, the resulting 0.5% (w/v) suspension was diluted with the vehicle to prepare a 0.15% (w/v) suspension. The total amount of each sample to be used in one day was prepared before use. EV06 was sonicated with the addition of the vehicle to prepare a 1.5% (w/v) solution. The total amount of the sample to be used in one day was prepared before use. 1) Each test sample (2.5 μL/eye) was instilled into the right eye of 8-month-old C57BL/6J mice with a Pipetman 3 times per day (around 9:00, 13:00 and 17:00) for 12 to 15 days. 2) After the final instillation, the mice were euthanized by carbon dioxide inhalation, and then the eyeballs were extracted and rinsed with Hank's balanced salt solution (HBSS). 3) The sclera near the optic nerve was cut with a razor, the lens was removed through the incision, and the removed lens was immersed in HBSS. 4) The lens was placed on a glass slide, and an all-in-one fluorescence microscope BZ-9000 (Keyence) was used to capture an image of the lens (Image a). 5) Next, one cover glass (Corning^(registered trade mark) 22×22 mm Square) was placed on the lens, and an image in which the thickness of the lens changed due to the weight was similarly captured (image b). 6) A change in the lens diameter was calculated from Equation 1 wherein the lens diameter of Image a is subtracted from the lens diameter of Image b, as described below. Then, the lens elasticity improvement of each sample group compared with the vehicle control group was calculated from Equation 2 described below. The mean of the vehicle control group was based on 5 eyes, the mean of each ursodeoxycholic acid sample group was based on 10 eyes, and the mean of the EV06 sample group was based on 10 eyes. Change in lens diameter=Lens diameter in Image b of each test sample−Lens diameter in Image a of each test sample (Equation 1) Lens elasticity improvement of each sample group=Mean change in lens diameter of each Test sample group−Mean change in lens diameter of Vehicle control group (Equation 2)

The subject of data set [2] is lens. The experiment in a line: Pharmacological Test 4: lens elasticity, once-daily instillation of ursodeoxycholic acid for 2 weeks. Particulars: 14 days; for Lens elasticity improvement: vs vehicle control; for Lens elasticity improvement, in words: instilled once-daily, 1% and 3% ursodeoxycholic acid samples, 1.5% EV06 sample. The class given is in vivo, C57BL/6J mice. On the procedure:
A vehicle comprising 0.1% (w/v) of ethyl pyruvate, 0.269% (w/v) of sodium dihydrogenphosphate monohydrate (NaH2PO4H2O), 0.433% (w/v) of disodium hydrogenphosphate (Na2HPO4), 0.2% (w/v) of hydroxypropyl methylcellulose, 0.5% (w/v) of NaCl was prepared. Ursodeoxycholic acid was sonicated with the addition of the vehicle to prepare a 3.0% (w/v) suspension. The resulting 3.0% (w/v) suspension was diluted with the vehicle to prepare a 1.0% (w/v) suspension. Further, the resulting 1.0% (w/v) suspension was diluted with the vehicle to prepare a 0.3% (w/v) suspension. The total amount of each sample to be used in one day was prepared before use. EV06 was sonicated with the addition of the vehicle to prepare a 1.5% (w/v) solution. The total amount of the sample to be used in one day was prepared before use. 1) Each test sample (2.5 μL/eye) was instilled into the right eye of 8-month-old C57BL/6J mice with a Pipetman once per day (QD; around 9:00), twice per day (BID; around 9:00 and 17:00), or 3 times per day (TID; around 9:00, 13:00 and 17:00) for 14 days. 2) After the final instillation, the mice were euthanized by carbon dioxide inhalation, and then the eyeballs were extracted and rinsed with Hank's balanced salt solution (HBSS). 3) The sclera near the optic nerve was cut with a razor, the lens was removed through the incision, and the removed lens was immersed in HBSS. 4) The lens was placed on a glass slide, and an all-in-one fluorescence microscope BZ-9000 ([…]) was used to capture an image of the lens (image a). 5) Next, one cover glass (Corning^(registered trade mark) 22×22 mm Square) was placed on the lens, and an image in which the thickness of the lens changed due to the weight was similarly captured (Image b). 6) A change in the lens diameter was calculated from Equation 1 wherein the lens diameter of Image a is subtracted from the lens diameter of Image b, as described below. Then, the lens elasticity improvement of each sample group compared with the vehicle control group was calculated from Equation 2 described below. The mean of the vehicle control group was based on 5 eyes, the mean of each ursodeoxycholic acid sample group was based on 10 eyes, and the mean of each EV06 sample group was based on 10 eyes. Change in lens diameter=Lens diameter in Image b of each test sample-Lens diameter in Image a of each test sample (Equation 1) Lens elasticity improvement of each sample group=Mean change in lens diameter of each Test sample group-Mean change in lens diameter of Vehicle control group (Equation 2)

Data set [3] relates to anterior segment of the eye. Kind of data set: Ocular Irritation Test (McDonald-Shadduck method, lens observation, histopathology). The class given is in vivo, Japanese White rabbits. As to the method:
A vehicle (aqueous solution) comprising 0.1% (w/v) of ethyl pyruvate, 0.269% (w/v) of sodium dihydrogenphosphate monohydrate ([…]), 0.433% (w/v) of disodium hydrogenphosphate (Na2HPO4), 0.2% (w/v) of hydroxypropyl methylcellulose, 0.5% (w/v) of NaCl was prepared.
Group treated with an ophthalmic suspension of ursodeoxycholic acid 1% (w/v), 3% (w/v), and 10% (w/v) ursodeoxycholic acid ophthalmic suspensions were prepared in the same manner as in the above pharmacological tests. These ophthalmic suspensions and the vehicle were each instilled into the left eye of Japanese White rabbits at a dose of 50 μL/eye with pipette twice per day at a 6-hour interval for 2 weeks. One hour after the final instillation, ocular irritation of anterior segment of the eye was evaluated according to the McDonald-Shadduck method, and the lens was observed. The contralateral eye was untreated.
The ocular irritation of anterior segment of the eye was scored according to the following criteria:
+1: mild; +2: moderate; +3: severe.

The mark [4] stands for this setting: after 2 week-repeated instillation of 1%, 3%, 10% ophthalmic suspensions.

`C[N+](C)(C)CCOC(=O)CCCC[C@@H]1CCSS1` [EV06, lipoic acid choline ester]: the Lens elasticity improvement with lens [1] (1.5% (w/v) sample) was 42.5 μm; with lens [2] (1.5% (w/v) sample, BID) it was 15.7 μm; in the data set with lens [2] (1.5% (w/v) sample, QD) it was −3.6 μm; in the data set on lens [2] (1.5% (w/v) sample, TID), 29.5 μm. Besides, the “Lens elasticity improvement, in words” value with lens [2] is recorded as “no effect”.
As to `C[C@H](CCC(=O)O)[C@H]1CC[C@H]2[C@@H]3[C@@H](O)C[C@@H]4C[C@H](O)CC[C@]4(C)[C@H]3CC[C@]12C` [ursodeoxycholic acid, 3α,7β-Dihydroxy-5β-cholan-24-oic acid], the Lens elasticity improvement in the data set on lens [1] (0.15% (w/v) sample) worked out at 31.8 μm; in the data set with lens [1] (0.5% (w/v) sample) it was 39.4 μm; in the data set on lens [1] (1.5% (w/v) sample), 59.9 μm; with lens [2] (0.3% (w/v) sample, QD) it was 2.8 μm; in the data set with lens [2] (1% (w/v) sample, QD) it was 28.1 μm; with lens [2] (3% (w/v) sample, QD) it was 30.4 μm. Moreover, the “Lens elasticity improvement, in words” value with lens [2] is given as “potent lens elasticity improvement”. For the same molecule, the “Histopathological examination of the eyes, in words” value in data set [3] (setting [4]) was “no abnormal findings”. In addition, in data set [3] (setting [4]), the “Observation of ocular irritation of anterior segment of the eye and lens observation, in words” value is given as “no abnormal findings”. Besides, the “Safety of the ophthalmic suspensions, in words” value in data set [3] (rabbit, in vivo) is reported as “highly safe”.

The record behind these values is US20230040386A1, “URSODEOXYCHOLIC ACID-CONTAINING AGENT FOR TREATING OR PREVENTING PRESBYOPIA” (priority 2018, published 2023).
